Test results from patent publication US20260198495A1, “BINARY INSECTICIDE COMPOSITION AND USE THEREOF” (SHENYANG SINOCHEM AGROCHEMICALS R & D CO., LTD., priority 2022, published 2026).
Values after ≈ are worked out from the molar mass of the structure shown.

What was measured:
Assay type in all cases: in vivo
[1] = system: Myzus persicae (Sulzer) nymphs; assay: Joint toxicity of I-72 + fenvalerate, Example 46, Table 46; details: A = compound I-72, B = fenvalerate, cabbage leaf spraying, 48 hours, read-out: LC50
Protocol: Test target: Myzus persicae (Sulzer) nymphs, a sensitive strain reared indoors.
(§1) Preparation of the pesticide solution: according to different test requirements, the test samples were accurately weighed respectively with an electronic analytical balance. The technical pesticides were dissolved in acetone, and then diluted with 0.1% Tween 80 water into a series of pesticide solutions with a certain concentration gradient according to the experimental design dosage.
(§2) Experimental method: first, cabbage leaves with uniform and consistent Myzus persicae (Sulzer) were selected, with about 30-40 insects on each leaf. Then, they were evenly sprayed with the pesticide solution in the order from low dosage to high dosage according to the experimental design, with 1.5 mL of the solution for each leaf and 3 replicates for each treatment. In addition, a blank control was set up.
(§3) The treated test materials were placed in an observation room, and the temperature, humidity and illumination of the observation room could be adjusted as needed. The number of dead and live insects was investigated 48 hours later. […] Then, the co-toxicity coefficient of each ratio was calculated using the Sun Y-P method to evaluate the mixing effect (the same as in Example 1).

Aphis craccivora nymphs = assay: whole plant or invertebrate; details: A = compound I-72, B = sulfoxaflor, broad bean seedling spraying, 48 hours, read-out: LC50
Protocol: Test target: Aphis craccivora nymphs, a sensitive strain reared indoors.
as §1
as §2, with “broad bean seedlings” for “cabbage leaves”, “Aphis craccivora” for “Myzus persicae (Sulzer)”, “seedling.” for “leaf.”
The treated test materials were placed in an observation room, and the temperature, humidity and illumination of the observation room could be adjusted as needed. The number of dead and live insects was investigated 48 hours later.

[2] = system: 2nd-instar nymphs of Frankliniella occidentalis Pergande; assay: Joint toxicity of I-72 + spinetoram, leaf spraying, Example 11, Table 11; details: Frankliniella occidentalis, kidney bean leaf spraying, 48 h, A = compound I-72, B = spinetoram, read-out: LC50
From the text: Test subject: 2nd-instar nymphs of Frankliniella occidentalis Pergande, a sensitive strain reared indoors.
Experimental method: the spraying method was adopted. The kidney bean leaves cultivated in the greenhouse were selected, and the petioles were wrapped with moist degreased cotton and sealing film. They were evenly sprayed with the pesticide solution in the order from low dosage to high dosage according to the experimental design, placed in a 6-cm-diameter Petri dish with filter paper. After natural air-drying in the shade, the test insects were introduced, with 20 insects for each treatment and 3 replicates. In addition, a blank control was set up. The number of dead and live insects was investigated 48 hours later. The corrected mortality rate was calculated using the Abbott's formula, and the DPS data processing software was used for statistical analysis to calculate the toxicities (LC50 values) of the single test pesticides and the mixtures under the test ratios.
The test conditions, the preparation of the pesticide solution and the evaluation method were the same as those in Example 1.

[3] = system: Nilaparvata lugens (Stal) nymphs; assay: Joint toxicity of I-72 + buprofezin, Example 52, Table 52; details: A = compound I-72, B = buprofezin, potted-seedling spraying, 72 hours, read-out: LC50
Protocol: Test target: Nilaparvata lugens (Stal) nymphs, a sensitive strain reared indoors.
as §1
Experimental method: the activity of the mixture against the Nilaparvata lugens (Stal) nymphs was determined by adopting the potted-seedling spraying method. First, rice seedlings were planted in culture pots. Uniform spraying was performed with the pesticide solution in the order from low dosage to high dosage according to the experimental design, with 2 mL for each seedling. Then, Nilaparvata lugens nymphs of uniform size were transferred onto the rice seedlings, with 3 replicates for each treatment. In addition, a blank control was set up.
as §3, with “72” for “48”, “effect,” for “effect (the same”, “1.” for “1).”

[4] = system: 2nd-instar larvae of Plutella xylostella; assay: Joint toxicity of I-72 + beta-cypermethrin, Example 43, Table 43; details: in Brassica oleracea, foliar, 72 h
Protocol: as §1
Experimental method: first, cabbage leaves were selected and dipped in the prepared pesticide solution for 10 s in the order from low dosage to high dosage according to the experimental design. After natural air-drying in the shade, they were placed in a 9-cm-diameter Petri dish with filter paper, and uniform and healthy test insects were introduced, with 10 insects for each treatment and 3 replicates for each treatment. In addition, a blank control was set up.
The treated test materials were placed in an observation room, and the temperature, humidity and illumination of the observation room could be adjusted as needed. The number of dead and live insects was investigated 72 hours later.

[5] = system: Unaspis yanonensis Kuwana nymphs; assay: Joint toxicity of I-72 + afidopyropen, Example 76, Table 76; details: Unaspis yanonensis, foliar; A = compound I-72, B = afidopyropen; citrus leaf dipping; 120 hours; read-out: LC50
Protocol: Test target: Unaspis yanonensis Kuwana nymphs.
as §1
Experimental method: the activity of the mixture against Unaspis yanonensis Kuwana nymphs on citrus was determined by adopting the dipping method. First, the collected citrus leaves with Unaspis yanonensis Kuwana nymphs were treated with the pesticide solution in the order from low dosage to high dosage according to the experimental design. After air-drying, the petioles were kept moist with degreased cotton, and then the leaves were placed in a Petri dish, with 3 replicates for each treatment. In addition, a blank control was set up.
as §3, with “120” for “48”

Q: With `CN(C(=O)c1ccc2c(c1)OC(F)(F)O2)c1cccc(C(=O)Nc2c(Br)cc(C(F)(C(F)(F)F)C(F)(F)F)cc2OC(F)F)c1F` [Compound I-72] as the compound, how does the LC50 [1] read?
A: 8.2 µg/mL

Q: And the LC50 (Aphis craccivora nymphs)?
A: 2.52 µg/mL (≈ 3.41 µM)

Q: What about the LC50 [2] of the same compound?
A: 1.94 µg/mL

Q: What about the LC50 [3] of the same compound?
A: 253 µg/mL

Q: And the LC50 [4]?
A: 0.0897 µg/mL

Q: And the LC50 [5]?
A: 75.4 µg/mL
